Laboratory results published in US20100209345A1, “Fluorinated Ligands for Targeting Peripheral Benzodiazepine Receptors” (Australian Nuclear Science & Technology Organisation, priority 2006, published 2010).
“Also recorded” adds a separate entry of the source.

Key:
[1] = target: T1, peripheral benzodiazepine receptors (Rattus norvegicus, UniProt P16257); test: In vivo blocking / competition of tracer uptake by pre-treatment with PBR and CBR ligands; conditions: rats; for Tracer uptake after pre-treatment with PK 11195 / Tracer uptake in the adrenals after pre-treatment with PK 11195: PK 11195 1 mg/kg 5 min prior to tracer; for Tracer uptake after pre-treatment with PK 11195 / Tracer uptake after pre-treatment with Ro 5-4864: PBR-expressing tissues (brain/peripheral organs, adrenals apart); for Tracer uptake after pre-treatment with Ro 5-4864 / Tracer uptake in the adrenals after pre-treatment with Ro 5-4864: Ro 5-4864 1 mg/kg 5 min prior to tracer; for Tracer uptake after pre-treatment with flumazenil (central benzodiazepine ligand): flumazenil 1 mg/kg 5 min prior to tracer, brain or peripheral organs; for Tracer uptake after pre-treatment with the non-radioactive analogue: non-radioactive analogue 1 mg/kg, PBR-expressing tissues
T1 construct: high uptake in the tissues which have known PBR sites; from tissue; host or cells: organs of living SD rats (brain and peripheral tissues), in vivo
Procedure, shortened: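 SD rats received PBR ligands PK11195 or Ro 5-4864, or the CBR ligand flumazenil, at 1 mg/kg 5 min before tracer injection. Brain and peripheral tissue uptake analysed at 15, 30 min, 1 and 4 h p.i.; significance set at p<0.05 and p<0.01 versus normals or controls.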

[2] = target: T2, peripheral benzodiazepine binding site (Rattus norvegicus, UniProt P16257); test: In vitro binding, [3H]-PK11195, kidney membrane preparation; conditions: PBR IC50 (nM), [3H]-PK11195 (2 nM), 4° C., 1 h
T2 construct: diluted kidney membrane preparation (200 μg); from tissue; host or cells: kidney membrane preparation
Description: Non-specific binding was determined with PK11195 (10 μM).
Non-specific binding was determined with Flumazenil (20 μM). In both cases, incubations were terminated by rapid filtration through Whatman GF/B glass fibre. Filters were immediately washed 3 times with 5 mL ice-cold 50 mM Tris/HCl at pH 7.4. Filters were counted in a β-scintillation counter (Packard) to measure the amount of bound radioactivity. The IC50 of the compounds for the peripheral benzodiazepine binding site and the central benzodiazepine receptor were calculated using Kell 6 software.

| Structure (SMILES) | Tracer uptake in the olfactory regions after pre-treatment with PK 11195 and Ro 5-4864 ([1]; 1 mg/kg 5 min prior to tracer, olfactory regions) | Tracer uptake after pre-treatment with PK 11195 [1] | Tracer uptake after pre-treatment with PK 11195 ([1]; listed as [^18F]PBR111) | Tracer uptake in the adrenals after pre-treatment with PK 11195 [1] | Tracer uptake after pre-treatment with Ro 5-4864 [1] | Tracer uptake after pre-treatment with Ro 5-4864 ([1]; listed as [^18F]PBR111) | Tracer uptake in the adrenals after pre-treatment with Ro 5-4864 [1] | Tracer uptake after pre-treatment with flumazenil (central benzodiazepine ligand) [1] | Tracer uptake after pre-treatment with flumazenil (central benzodiazepine ligand) ([1]; listed as [^18F]PBR111) | Tracer uptake after pre-treatment with the non-radioactive analogue ([1]; listed as [^18F]PBR111) | IC50 [2] | Tracer uptake after pre-treatment with PK 11195 ([1]; listed as [^18F]PBR102) | Tracer uptake after pre-treatment with Ro 5-4864 ([1]; listed as [^18F]PBR102) | Tracer uptake after pre-treatment with flumazenil (central benzodiazepine ligand) ([1]; listed as [^18F]PBR102) | Tracer uptake after pre-treatment with the non-radioactive analogue [1] |
| --- | --- | --- | --- | --- | --- | --- | --- | --- | --- | --- | --- | --- | --- | --- | --- |
| CCN(CC)C(=O)Cc1c(-c2ccc(OCCCF)cc2)nc2ccc(Cl)cn12 [PBR111, 2-(2-(4-(3-fluoropropoxy)phenyl)-6-chloroimidazo[1,2-a]pyridin-3-yl)-N,N-diethylacetamide] | non-significant decrease | decreased | reduced uptake; also recorded: blocking effect | increase | decreased | reduced uptake; also recorded: blocking effect | increase | no effect | does not compete; also recorded: does not reduce | reduced uptake; also recorded: blocking effect | 7.5 nM | – | – | – | – |
| CCN(CC)C(=O)Cc1c(-c2ccc(OCCF)cc2)nc2ccc(Cl)cn12 [PBR102, 2-(2-(4-(2-fluoroethoxy)phenyl)-6-chloroimidazo[1,2-a]pyridin-3-yl)-N,N-diethylacetamide] | – | decreased | – | increase | decreased | – | increase | no effect | – | – | 13.2 nM | blocking effect | blocking effect | does not reduce | blocking effect |
